Results as given in PubChem BioAssay AID493092 (Sanford-Burnham Center for Chemical Genomics, 2011).
The source made the active and inactive calls.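 Rule for the calls: active = averaged IC50 for reducing per-cell lipid droplet stain intensity under a set limit; inactive = the rest.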

Test system: AML12 mouse hepatocytes, BODIPY lipid droplet imaging
Assay: lipid droplet accumulation inhibition in liver cells – imaging, AML12 mouse hepatocytes, BODIPY staining, SAR follow-up (AID 493092)
Conditions: cells fed 100 µM oleate overnight

Row | SMILES | IC50
1 | COc1ccc(Br)cc1CN(C)C(=O)CNC(=O)Cc1cccc2ccccc12 | 2080 nM
2 | Cc1sc(NC(=O)Cc2ccc3c(c2)OCO3)nc1-c1ccc2c(c1)CCN2C(=O)c1ccccc1F | > 32000 nM (inactive)
3 | CC(Sc1nnc(Nc2ccccc2)s1)C(=O)Nc1nc(-c2ccccc2)cs1 (stereo not drawn) | 3680 nM
4 | COc1ccc(CCNC(=O)Nc2cc(F)c(F)cc2Cl)cc1OC | > 32000 nM (inactive)
5 | COc1ccc(C(=O)OCC(=O)NC(C)CCc2ccccc2)c(OC)c1 (stereo not drawn) | 1010 nM
6 | Cc1nn2c(N3CCOCC3)cc(C(C)(C)C)nc2c1-c1ccc(Cl)cc1 | > 32000 nM (inactive)
7 | COc1ccc(NC(=O)CCC(=O)Nc2cc(OC)c(NC(=O)c3cccs3)cc2OC)cc1 | 635 nM
8 | CCCc1cc(N2CCOCC2)n2nc(C)c(-c3ccccc3)c2n1 | 168 nM
9 | CCOc1cc2c(cc1OCC)CN(C(=O)CNC(=O)c1ccc3ccccc3c1)CC2 | 311 nM
10 | COc1ccc(-c2csc(NC(=O)c3ccc(OCC(=O)N4CCOCC4)c(OC)c3)n2)cc1OC | 1020 nM
11 | CCOc1ccc(CCNC(=O)CCc2nnc3ccc(N4CCCC4)nn23)cc1OCC | 922 nM
12 | COc1ccc(CCNC(=O)Nc2ccc(C(C)=O)cc2)cc1OC | > 32000 nM (inactive)
13 | CCOc1ccc(CCNC(=O)Nc2ccccc2C)cc1OCC | 826 nM
14 | CCOc1ccc(CCNC(=O)COC(=O)c2cc(OC)c(OC)c(OC)c2)cc1OCC | 103 nM
15 | CCOc1ccc(CCNC(=O)c2cc3sc(Cl)cc3n2C)cc1OCC | 92.2 nM
16 | COc1ccc(CCNC(=O)Nc2ccccc2Cl)cc1OC | > 32000 nM (inactive)
17 | CCOc1ccc(CCNC(=O)CCOc2cc(C)ccc2C)cc1OCC | 102 nM
18 | CCOc1ccc(CCNC(=O)CN2CCN(Cc3ccccc3C)C2=O)cc1OCC | 555 nM
19 | CC(C)Oc1ccc(C(=O)OC(C)C(=O)Nc2nc(-c3cccc([N+](=O)[O-])c3)cs2)cc1 (stereo not drawn) | 106 nM
20 | CCOc1ccc(C(=O)NCC(=O)NC(C)CCc2ccccc2)cc1OCC (stereo not drawn) | 688 nM
21 | Cc1cc(N2CCOCC2)n2ncc(-c3ccccc3)c2n1 | 3070 nM
22 | CC1CCCN(C(=O)c2ccc3c(c2NCCO)C(=O)c2ccccc2C3=O)C1 (stereo not drawn) | 2250 nM
23 | CCN(CC)S(=O)(=O)c1ccc(C(=O)NCC(=O)NCCCc2ccccc2)cc1 | > 32000 nM (inactive)
24 | COc1cccc(NC(=O)CCC(=O)Nc2cc(OC)c(NC(=O)c3cccs3)cc2OC)c1 | 197 nM
25 | CCOc1ccc(CCNC(=O)Cn2ncn3nc(-c4ccc(OC)cc4)cc3c2=O)cc1OCC | 121 nM
26 | COc1cc(OC)cc(C(=O)NCC(=O)NC(C)CCc2ccccc2)c1 (stereo not drawn) | > 32000 nM (inactive)

Row | SMILES | IC50
27 | Cc1cc(C(=O)OC(C)C(=O)Nc2nc(-c3ccccc3)cs2)c(C)o1 (stereo not drawn) | 428 nM
28 | CN(Cc1ccc2c(c1)OCO2)C(=O)CNC(=O)Cc1cccc2ccccc12 | > 32000 nM (inactive)
29 | COc1ccc(-c2csc(NC(=O)c3ccc(OCC(=O)N4CCOCC4)c(OC)c3)n2)cc1 | 475 nM
30 | COc1ccc(CN(C)C(=O)CNC(=O)Cc2cccc3ccccc23)c(OC)c1 | 2990 nM
31 | CCOc1ccc(CCNC(=O)CSc2cc(=O)n(CC)c3ccccc23)cc1OCC | 1260 nM
32 | Cc1cc(N2CCOCC2)n2nc(C)c(-c3ccc(Cl)cc3)c2n1 | 158 nM
33 | CCCc1cc(N2CCOCC2)n2ncc(-c3ccccc3)c2n1 | 2500 nM
34 | CCOc1ccc(CCNC(=O)Cn2cccc2C(=O)c2ccccc2)cc1OCC | 424 nM
35 | CCOc1ccc(CCNC(=O)CCc2nc(-c3ccc(OC)cc3)no2)cc1OCC | 302 nM
36 | COc1ccc(C(=O)OCC(=O)NC(C)CCc2ccccc2)cc1OC (stereo not drawn) | 8730 nM (inactive)
37 | CCCc1cc(N2CCCC2)n2nc(C)c(-c3ccccc3)c2n1 | 700 nM
38 | CCOC(=O)c1cc(CC)sc1NC(=O)C1CC(=O)NN1Cc1ccccc1 (stereo not drawn) | 338 nM
39 | CC(OC(=O)c1ccc(F)cc1)C(=O)Nc1nc(-c2cccc([N+](=O)[O-])c2)cs1 (stereo not drawn) | > 32000 nM (inactive)
40 | CCc1ccc(NC(=O)CCC(=O)Nc2cc(OC)c(NC(=O)c3cccs3)cc2OC)cc1 | 336 nM
41 | COc1ccc(CCNC(=O)Nc2ccccc2C#N)cc1OC | > 32000 nM (inactive)
42 | Cc1nn2c(N3CCOCC3)c3c(nc2c1-c1ccccc1)CCC3 | 21600 nM (inactive)
43 | CC1CC(C)CN(C(=O)c2ccc3c(c2NCCO)C(=O)c2ccccc2C3=O)C1 (stereo not drawn) | 782 nM
44 | CCOc1ccc(CCNC(=O)CSc2cc(=O)n(C)c3cc(Cl)ccc23)cc1OCC | > 32000 nM (inactive)
45 | COc1ccc(CCNC(=O)Nc2ccccc2C(F)(F)F)cc1OC | > 32000 nM (inactive)
46 | Cc1cc(N2CCOCC2)n2nc(C(F)(F)F)c(-c3ccc(Cl)cc3)c2n1 | 113 nM
47 | COc1ccc(CNC(=O)CN2C(=O)NC(C)(c3cccc4ccccc34)C2=O)cc1OC (stereo not drawn) | 1170 nM
48 | CCOc1ccc(C(=O)OCC(=O)Nc2nc(OC)cc(OC)n2)cc1OCC | 591 nM
49 | CCCc1ccc(-c2csc(NC(=O)Cc3cccs3)n2)cc1 | 510 nM
50 | CCOc1ccc(CN(C)C(=O)CNC(=O)Cc2cccc3ccccc23)cc1 | 168 nM
51 | CCOc1ccc(CCNC(=O)Cn2nc(C)c3c(C)n(-c4ccccc4)nc3c2=O)cc1OCC | 336 nM
52 | CC(OC(=O)c1ccc(O)cc1)C(=O)Nc1nc(-c2ccccc2)cs1 (stereo not drawn) | > 32000 nM (inactive)

Row | SMILES | IC50
53 | Cc1ccc(-c2cnn3c(N4CCOCC4)cc(C)nc23)cc1 | 10600 nM (inactive)
54 | Cc1cc(N2CCOCC2)n2nc(C)c(-c3ccccc3)c2n1 | 217 nM
55 | CCOc1ccc(C(=O)OC(C)C(=O)Nc2nc(-c3ccc(CC)cc3)cs2)cc1OCC (stereo not drawn) | < 62.5 nM
56 | CC(OC(=O)c1ccc(S(=O)(=O)C(F)F)cc1)C(=O)Nc1nc(-c2ccccc2)cs1 (stereo not drawn) | > 32000 nM (inactive)
57 | CCOc1ccc(CCNC(=O)c2cc(-c3ccccc3)c(N3CCOCC3)s2)cc1OCC | < 62.5 nM
58 | CCOc1ccc(CCNC(=O)Cn2cccc2C(=O)c2ccccc2C)cc1OCC | 330 nM
59 | COc1cc(NC(=O)c2cccs2)c(OC)cc1NC(=O)CCC(=O)Nc1cccc2ncccc12 | 4500 nM
60 | COc1cccc(CN(C)C(=O)CNC(=O)Cc2cccc3ccccc23)c1OC | > 32000 nM (inactive)
61 | COc1ccccc1NS(=O)(=O)c1ccc(NN=Cc2c(C)nn(-c3ccccc3)c2N2CCCC2)c([N+](=O)[O-])c1 | 887 nM
62 | CCOc1ccc(CCNC(=O)CCC(=O)N2CCSc3ccccc32)cc1OCC | 81.7 nM
63 | CCOc1ccc(CCNC(=O)CSc2cc(=O)n(C)c3ccccc23)cc1OCC | 496 nM
64 | CC(OC(=O)c1ccc(O)cc1)C(=O)Nc1nc(-c2cccc([N+](=O)[O-])c2)cs1 (stereo not drawn) | > 32000 nM (inactive)
65 | Cc1cc(C)n(-c2ccc(C(=O)OC(C)C(=O)Nc3nc(-c4ccccc4)cs3)cc2)n1 (stereo not drawn) | > 32000 nM (inactive)
66 | CCOc1ccc(C(C)NC(=O)Cc2ccccc2F)cc1OCC (stereo not drawn) | 840 nM
67 | O=C(CNC(=O)c1cccc(Br)c1)NCCCc1ccccc1 | > 32000 nM (inactive)
68 | CCOc1ccccc1Nc1nnc(SC(C)C(=O)Nc2nc(-c3ccccc3)cs2)s1 (stereo not drawn) | 1160 nM
69 | COc1cc2c(cc1OC)CN(C(=O)CNC(=O)Cc1cccc3ccccc13)CC2 | 469 nM
70 | CCOc1ccc(CCNC(=O)C2CC=CCC2C(=O)OC(C)C)cc1OCC (stereo not drawn) | 267 nM
71 | CCOc1ccc(CCNC(=O)CCc2nnc3ccc(N4CCCCC4)nn23)cc1OCC | 366 nM
72 | CCOc1ccc(CN(C)C(=O)CNC(=O)c2ccc3ccccc3c2)cc1OC | 402 nM
73 | CCOc1ccc(CN(C)C(=O)CNC(=O)c2ccc(Br)o2)cc1OC | 1830 nM
74 | O=C(NCc1ccc2c(c1)OCO2)c1cc(-c2ccccc2)c(N2CCOCC2)s1 | 412 nM
75 | CCOc1ccc(CCNC(=O)CCC(=O)N2CCOc3ccc(C)cc32)cc1OCC | 298 nM
76 | COc1ccccc1NC(=O)C1CCN(C(=O)NCc2ccccc2)CC1 | 3230 nM
77 | O=C(CSCC(=O)N1CCCc2ccccc21)Nc1nc(-c2ccccc2)cs1 | 11800 nM (inactive)
78 | CCOc1ccc(CCNC(=O)CCC(=O)N2CCOc3ccccc32)cc1OCC | 161 nM

Row | SMILES | IC50
79 | CCOc1ccc(C(=O)OCC(=O)Nc2cc(C)on2)cc1OCC | 864 nM
80 | Cc1ccccc1C(=O)NCC(=O)NCCC(c1ccccc1)c1ccccc1 | > 32000 nM (inactive)
81 | COc1cc(NC(=O)c2cccs2)c(OC)cc1NC(=O)CCC(=O)Nc1cc(C)cc(C)c1 | 87 nM
82 | COc1ccc(C(=O)OC(C)C(=O)Nc2cc(C(F)(F)F)ccc2Cl)c(OC)c1OC (stereo not drawn) | 439 nM
83 | COc1ccc(C(=O)OC(C)C(=O)NC(C)CCc2ccccc2)cc1[N+](=O)[O-] (stereo not drawn) | 261 nM
84 | CCOc1ccc(NC(=O)CCC(=O)Nc2cc(OC)c(NC(=O)c3cccs3)cc2OC)cc1 | 276 nM
85 | O=C(Nc1nc(-c2ccc(-c3ccccc3)cc2)cs1)C1CCCO1 (stereo not drawn) | 1100 nM
86 | COc1cc(NC(=O)c2cccs2)c(OC)cc1NC(=O)CCC(=O)Nc1cccc2ccccc12 | 260 nM
87 | COc1ccc(CCNC(=O)Nc2ccc(F)cc2F)cc1OC | > 32000 nM (inactive)
88 | COc1ccc(C)cc1CN(C)C(=O)C(C)NC(=O)Cc1cccc2ccccc12 (stereo not drawn) | 1050 nM
89 | Cc1ccc(C(=O)OC(C)C(=O)Nc2nc(-c3cccc([N+](=O)[O-])c3)cs2)cc1 (stereo not drawn) | 17000 nM (inactive)
90 | CC(=O)Nc1ccc(-c2csc(NC(=O)Cc3cccc(F)c3)n2)cc1 | 2710 nM
91 | CCOc1ccc(CCNC(=O)c2nnc(Cc3ccc(F)cc3)o2)cc1OCC | 543 nM
92 | CCOc1cc2c(cc1OCC)C(c1ccccc1)N(c1ccccc1)C(=O)C2 (stereo not drawn) | 287 nM
93 | CCOc1ccc(CCNC(=O)Nc2ccccc2)cc1OCC | 257 nM
94 | CC(OC(=O)c1ccc2c(c1)OCO2)C(=O)Nc1nc(-c2cccc([N+](=O)[O-])c2)cs1 (stereo not drawn) | > 32000 nM (inactive)
95 | CCOc1ccc(CCNC(=O)COC(=O)c2cc(OC)cc(OC)c2)cc1OCC | 736 nM
96 | Cc1ccc(-c2c(C)nn3c(N4CCOCC4)cc(C)nc23)cc1 | 246 nM
97 | CCOc1cc(CNC(=O)CCCn2c(=O)c3cccn3c3cccnc32)cc(OCC)c1OCC | 220 nM
98 | Cc1cc(N2CCOCC2)n2ncc(-c3ccc(F)cc3)c2n1 | 2120 nM
99 | CCOc1ccc(CCNC(=O)CN2C(=O)c3cccnc3Oc3ccc(C)cc32)cc1OCC | 170 nM
100 | CCOc1ccccc1NC(=O)CCCNC(=O)Cn1cnc2sc(C)c(C)c2c1=O | 8670 nM (inactive)
101 | COc1ccc(CN(C)C(=O)CNC(=O)Cc2cccc3ccccc23)c(OC)c1OC | 2350 nM
102 | Cc1ccc(C(=O)NCC(=O)NCCCc2ccccc2)cc1 | > 32000 nM (inactive)
103 | CCOc1ccc(CCNC(=O)Nc2cccc(OC)c2)cc1OCC | 134 nM
